Data set [1] deals with healthy donors. The experiment in a line: Allergic skin reaction (type I allergy) skin test in healthy donors.
Data set [2] has as its system HLA-A24 restricted antigen peptide-specific T cells (CTL precursors) in PBMCs. The format is cell-based, human. The settings on record: for IFN-γ production 1st well / IFN-γ production 2nd well / IFN-γ production 3rd well / change in reactivity of PBMCs to the vaccinated peptide after vaccination: HLA-A24 positive cervical cancer patient; for change in reactivity of PBMCs to the vaccinated peptide after vaccination: before vs after 3rd and 6th dose; for CTL precursor induction assay, response level per well: quadricate assay.

The next data set has as its system cancer patients. Put plainly: Skin test for immediate and delayed type hypersensitivity in cancer patients. The method, then: For the skin test, 10 μg of 5 kinds of peptides was subcutaneously administered to each patient. Saline was used as the negative control. 20 minutes and 24 hours after injection, immediate and delayed type hypersensitivity (DHT) reactions were looked for. The skin test reaction was determined as positive if erythema and sclerosis were more than 10 mm in diameter. If the immediate hypersensitivity reaction was negative, a peptide was administered. Each peptide solution (3 mg/ml) was mixed with the same amount of IFA (Montanide ISA-51) and emulsified in a 5-mI plastic syringe, and 3 ml of the emulsion was subcutaneously administered to the lateral femoral region every two weeks. Serum PSA level was measured 4 weeks after vaccination. The time passed was defined as the time from the registration day to the date when the progress of the target disease was recorded. For patients who chose to discontinue the study without any progress of the target disease (e.g., increase in PSA) it was determined that the disease had progressed at the time the study was stopped.
When an immediate hypersensitivity reaction positive in the skin test of one of these peptides, that peptide was vaccinated if the fifth peptide of criteria A, B, or Z was negative in the skin test. […] In Table 14, o signifies vaccine peptides given to each patient.
Vaccine was administered to HLA-A24 positive patients with progressive cancer as following. CypB91 was given to lung cancer patients, ART475 to ovarian cancer patients, and SART3109 to colorectal cancer patients. None of the patients received any steroids or other immunosuppressants from 4 weeks before the beginning of this study to the end of the study. When the skin test was negative, 1 ml of peptide solution (1 mg/ml) was emulsified with the same amount of Freund's incomplete adjuvant (Montanide ISA-51) and injected subcutaneously. In this embodiment, all patients were vaccinated at least three times every two weeks, and up to seventeen times, depending on the patient's wishes.

For data set [3], the system named is healthy donors. The settings on record: in vivo.
[4] abbreviates: HLA-A24 positive cervical cancer patient PBMCs.
[5] abbreviates: after more than 5 doses of cancer vaccine.
Setting [6] is: before vaccination, response to HIV-C1R-A24 cells subtracted.
Where [7] appears, read: HRPC Pt. 3, pre-vaccinated PBMCs.

These results are taken from US20060035291A1, “Method of detecting cellular immunity and application thereof to drugs” (priority 2001, published 2006).

Where two headings read alike, the source gives them in different places. Where no end group is shown, it is not given here.

Consider TFHRVIKDF, for which the “Allergic skin reaction, area of flare” value with healthy donors [1] (healthy donor HD1) came out at 540 mm × mm; with healthy donors [1] (healthy donor HD2), 1400 mm × mm; in the data set on healthy donors [1] (healthy donor HD3) it was 750 mm × mm; with healthy donors [1] (healthy donor HD6) it was 450 mm × mm; in the data set with healthy donors [1] (healthy donor HD10), 300 mm × mm.

As to HYTNASDGL [lck208], in data set [2], the “frequency of detection in the primary screening (patients)” value was 3/10. In data set [2] (setting [4]), the “IFN-γ production After 3rd dose of vaccine” value turned out to be 676 pg/mL. Besides, the “IFN-γ production After 6th dose of vaccine” value in data set [2] (setting [4]) was 745 pg/mL. Also, in data set [2] (setting [4]), the “IFN-γ production Pre-Vaccination” value came out at 602 pg/mL. The “IFN-γ production 1st well” value in data set [2] (setting [5]) was 41 pg/well; in data set [2] (setting [6]) it was below 0 pg/well. For the same sequence, the figures for the “IFN-γ production 2nd well” value in data set [2] (setting [5]) and in data set [2] (setting [6]) were 1473 pg/well and below 0 pg/well, respectively. For the same sequence, in data set [2] (setting [6]), the “IFN-γ production 3rd well” value is on record as 76 pg/well. Moreover, in data set [2], the “change in reactivity of PBMCs to the vaccinated peptide after vaccination” value is given as “increase in reactivity”. Besides, the “CTL precursor induction assay, response level per well” value was “E^′” in data set [2] (HRPC Pt. 1, pre-vaccinated PBMCs); “⊚AD” in data set [2] (setting [7]); “⊚ArAAC” in data set [2] (HRPC Pt. 6, pre-vaccinated PBMCs); “⊚AD” in data set [2] (HRPC Pt. 9, pre-vaccinated PBMCs). Besides, the “positive well frequency after vaccination” value in data set [2] (colorectal cancer patient 1) and in data set [2] (colorectal cancer patient 2) was “increase in positive well frequency” each time. For the same sequence, the “peptide-specific DTH reaction” value is listed as “observed after the 6th vaccination” in the data set on cancer patients (colorectal cancer patient 1) and “exhibited DTH reaction” with cancer patients (colorectal cancer patient 4, after the 3rd vaccination).

Consider HFHRVIPDF, for which the “Allergic skin reaction, area of flare” value in the data set with healthy donors [1] (healthy donor HD1) is 375 mm × mm; in the data set on healthy donors [1] (healthy donor HD2), 1225 mm × mm; with healthy donors [1] (healthy donor HD3) it was 750 mm × mm; in the data set on healthy donors [1] (healthy donor HD6) it was 900 mm × mm; with healthy donors [1] (healthy donor HD10) it was 156 mm × mm.

Consider PFHRVIPDF, for which the “Allergic skin reaction, area of flare” value in the data set on healthy donors [1] (healthy donor HD1) turned out to be 525 mm × mm; in the data set with healthy donors [1] (healthy donor HD2), 2000 mm × mm; in the data set with healthy donors [1] (healthy donor HD3) it was 1400 mm × mm; with healthy donors [1] (healthy donor HD6), 700 mm × mm; in the data set on healthy donors [1] (healthy donor HD10), 270 mm × mm.

KFHRVIPKF: the “Allergic skin reaction, area of flare” value with healthy donors [1] (healthy donor HD1) was 600 mm × mm; in the data set with healthy donors [1] (healthy donor HD2), 750 mm × mm; in the data set on healthy donors [1] (healthy donor HD3) it was 1225 mm × mm; in the data set with healthy donors [1] (healthy donor HD6), 500 mm × mm; in the data set with healthy donors [1] (healthy donor HD10), 625 mm × mm.

Regarding SFHRVIKDF, the “skin reaction compared with human CypB84” value with healthy donors [1] (5 healthy donors) is “weaker skin reaction”. Further, the “Allergic skin reaction, area of flare” value with healthy donors [1] (healthy donor HD1) is 0 mm × mm; in the data set with healthy donors [1] (healthy donor HD2), 400 mm × mm; with healthy donors [1] (healthy donor HD3), 225 mm × mm; in the data set with healthy donors [1] (healthy donor HD6), 255 mm × mm; in the data set on healthy donors [1] (healthy donor HD10), 100 mm × mm.

As for DYPSLSATDI [ART475], the “rate of skin reaction occurrence (donors)” value in the data set with healthy donors [3] is reported as “no such response”. Also, in data set [2] (setting [5]), the “IFN-γ production 1st well” value was found to be 9 pg/well, the “IFN-γ production 2nd well” value was 2 pg/well and the “IFN-γ production 3rd well” value came to 60 pg/well. In addition, in data set [2], the “change in reactivity of PBMCs to the vaccinated peptide after vaccination” value was “increase in reactivity”. In data set [2] (setting [7]), the “CTL precursor induction assay, response level per well” value is “⊚AE”. For the same sequence, the “CTL precursor induction assay, response level per well” value in data set [2] (HRPC Pt. 4, pre-vaccinated PBMCs) is given as “⊚B”.

Turning to EYCLKFTKL [ART1170], in the data set with cancer patients (10 colorectal cancer patients, before vaccination), the “immediate hypersensitivity reaction in skin test” value is recorded as “positive in all patients”.

With NFHRVIKDF, the “Allergic skin reaction, area of flare” value with healthy donors [1] (healthy donor HD1) worked out at 360 mm × mm; in the data set on healthy donors [1] (healthy donor HD2), 1400 mm × mm; in the data set on healthy donors [1] (healthy donor HD3), 600 mm × mm; with healthy donors [1] (healthy donor HD6), 1350 mm × mm; in the data set with healthy donors [1] (healthy donor HD10) it was 300 mm × mm.
